Where “and” joins values, the source holds several entries; their conditions need not be identical. Equal values may be shown once. Read-outs that look alike come from different tables or passages of the source. Each block holds one compound with its values, some of them ahead of it.
Tests used:
[1] = design: method as in Cawthray et al. 37; details: ITC, 37 °C, ref Cawthray et al. 37; cited from earlier work
[2] = isothermal titration calorimetry, binding to hydroxyapatite; details: ITC
Experimental: ITC experiments in the presence of ligand (Hdpp or XT) were carried out in either piperazine (100 mM) pH 5 or HEPES (100 mM) pH 7.4. Titrations were performed by injecting consecutive 10 μL aliquots of ligand (2.5–80 mM) or metal ion/ligand solution (2.5/10 mM for Hdpp and 81/90 mM for XT) into the ITC cell (volume = 1.4 mL) containing hydroxyapatite (0.1–1.5 mM) suspension. Hydroxylapatite suspensions were prepared by adding the required amount of hydroxyapatite to the appropriately buffered solution followed by sonication for 5 minutes. The ITC cell was stirred continuously during the titration. Control experiments (heats of dilution) were performed by titration of ligand or metal ion/ligand solution into buffer containing no hydroxyapatite. Each ITC experiment was performed in triplicate (at least). The error associated with diffusion from the syringe during baseline equilibration, the first injection was only 5 μL, and the associated small heat was not included in the data analysis.

[3] = tissue and plasma distribution of lanthanum after multiple intravenous doses (ICP-MS); type: in vivo, SD rats; details: for plasma levels after 5 days of treatment / La^3+ concentration in brain / La^3+ concentration in heart / La^3+ concentration in kidney / La^3+ concentration in spleen: IV 1 mg kg^–1 per day for 5 days; for plasma levels after 5 days of treatment: mean ± SD; for La^3+ concentration in brain / La^3+ concentration in heart / La^3+ concentration in kidney / La^3+ concentration in spleen: n = 6, mean ± SD; for plasma concentration, t=end, mean / plasma concentration, t=end, single animals: IV 1mg/kg/day, end of trial; for plasma concentration, t=end, mean: n=6, mean; for plasma concentration, t=end, single animals: value of each animal, 1 mg/kg/day
Experimental: (§1) Lanthanide concentration for both in vivo and in vitro studies were determined by ICP-MS analysis by the method reported previously.[30] In brief, samples were dried (vacuum centrifugation) and dissolved in conc. nitric acid (Optima) and slowly heated to 105 °C over 1 h and maintained at 105 °C for 24 h. Hydrogen peroxide (approximately 2 mL) was added and samples heated at 140 °C for 24 h. Samples were evaporated to dryness at 150 °C before redissolving in 3 mL of 10% nitric acid (with 10 ppm Rh) prior to analysis by ICP-MS.
(§2) Solutions of La(dpp)3 and La(XT) (1 mg mL^–1) were prepared in 10% DMSO and stored at 4 °C. Animals were administered with a dose of 1 mg kg^–1 once daily for 5 consecutive days by intravenous injection via jugular vein port. The animals were sacrificed on the day of the 5th dose and the spleen liver, kidney lungs, heart, brain and bones were collected. Blood samples (0.5 mL) were withdrawn at pre-dose and post-dose. The blood was centrifuged for 10 min at […] at room temperature to obtain the plasma. For organ homogenization, 1 g organ was added to 2 mL normal saline. Bones were cleaned manually of all soft flesh and sectioned into knee, middle, and hip parts using a ceramic blade, and lyophilized prior to normal acid digestion.

[4] = design: method as in PMID 23299719, PMID 11442371; details: cited from earlier work; for pM (= –log[La^3+]): calculated at pH 7.4, 100 μM ligand, 10 μM metal
[5] = hydroxyapatite binding study (batch, La^3+ depletion in supernatant by ICP-MS); details: pH 7.4, 37 °C, excess HAP
Experimental: as §1
All time points were run in triplicate. Samples containing 10 mg of hydroxyapatite (Sigma-Aldrich) were initially incubated and agitated (37 °C, 220 rpm) with 0.9 mL HEPES buffer (100 mM, pH 7.4) in 1.5 mL Eppendorfs for 24 hours. Stock solutions (1.0 mM) of La(dpp)3 and La(XT) were prepared from the premade complexes dissolved in HEPES buffer. At the outset of the experiment, 100 μL of either stock solution was added to a sample and incubated and agitated for a set time. When the time point was reached, the supernatant was carefully removed, taking care not to disturb the residual HAP, and filtered through a 22 micron frit. […] Samples containing La(dpp)3 were also analysed by UV-Vis spectroscopy to determine Hdpp concentration. […]

[6] = bone (femur) distribution of lanthanum after multiple doses; type: in vivo, SD rats; details: 1 mg kg^–1 per day for 5 days, ANOVA p 0.006, 0.017, 0.004 (hip, mid, knee)
Experimental: as §1, §2

MG-63 cells = test system: MG-63 cells; design: method as in PMID 17992287, PMID 23299719, PMID 11442371; details: earlier work of the authors, read-out: EC50 (cellular toxicity); cited from earlier work
[7] = plasma clearance and pharmacokinetics after single intravenous dose; type: in vivo, SD rats
Experimental: as §1
(§3) Solutions of La(dpp)3 were prepared in 10% DMSO and the stability of the complex over time (7 days) monitored by spectrophotometric methods. The solution of La(dpp)3 was administered to the animals through cannulae implanted in their jugular veins (n = 6). The animals received a dose of 1 mg kg^–1 at time 0 h and blood samples (0.25 mL were withdrawn at pre-dose, 5, 10, 15, 30 min and 1, 2, 3, 4, 6, 10, 24, 48, 72, 96 and 144 h post-dose). The animals were sacrificed following the last time point and the spleen, liver, kidney, lungs, heart and brain were collected. Lanthanide concentrations were determined by ICP-MS analysis following acid digestion of the samples. The calibration curves were linear in the range of 0.1–100 ng mL^–1 and 1–50 ng mL^–1 in the organs and plasma; respectively. The plasma pharmacokinetic parameters were derived by non-compartmental analysis of plasma concentration-time profiles using Phoenix software (Ver. 1.3).

[8] = tissue distribution of lanthanum after single intravenous dose (ICP-MS); type: in vivo, SD rats; details: single IV dose 1 mg kg^–1, last sampling point 144 h
Experimental: as §1, §3

[9] = thermodynamic stability of the complex
[10] = La^3+ in plasma, La(dpp)3 1 mg kg^–1 IV, SD rats, non-compartmental, n = 6, mean

Structure (SMILES): [La+3] [Free La^3+]
apparent K a (pH 5) [1]: 2.4 (±0.2) × 10^6 M^–1

apparent K a (pH 5) ([2]; 37 °C, pH 5 (100 mM piperazine), one-site bimolecular–bimolecular model): 1.9 (±0.4) × 10^2 M^–1 | K (one-site fit) ([2]; 37 °C, pH 7.4 (100mM HEPES), 30.4mM H5XT into 1.1 mM HAP, Fig. S2): 6.61E3±1.33E3
Structure (SMILES): O=C(O)CN(CC(=O)O)CP(=O)(O)CN(CC(=O)O)CC(=O)O [H5XT, bis[[bis(carboxymethyl)amino]-methyl]phosphinate]

interaction of ligand alone with HAP ([2]; pH 5, absence of La^3+): do not see any evidence of interaction | binding of ligand alone to HAP ([2]; pH 7.4, absence of La^3+): no binding is observed
Structure (SMILES): Cc1c(O)c(=O)ccn1C [Hdpp, 3-hydroxy-1,2-dimethylpyridin-4(1H)-one]

plasma levels after 5 days of treatment [3]: 5999 ± 302 ng g^–1 | La^3+ concentration in brain [3]: 112 ± 84 ng g^–1 | La^3+ concentration in heart [3]: 768 ± 115 ng g^–1 | La^3+ concentration in kidney [3]: 1320 ± 157 ng g^–1 | La^3+ concentration in spleen [3]: 3854 ± 827 ng g^–1 | plasma concentration, t=end, mean [3]: 5998.7 ng/g weight | La^3+ bound to HAP ([5]; after 4 h): less than 20% | bone distribution of lanthanum compared to La(dpp)3 [6]: slightly greater
Structure (SMILES): O=C([O-])CN(CC(=O)[O-])CP(=O)(O)CN(CC(=O)[O-])CC(=O)[O-].[La+3] [La(XT)]
plasma concentration, t=end, single animals [3]: 5843.4 ng/g weight and 6432.4 ng/g weight and 5776.8 ng/g weight and 6337.3 ng/g weight and 5782.3 ng/g weight and 5819.9 ng/g weight | pM (= –log[La^3+]) [4]: 12.0 | log βML [4, 9]: 13.0(3)

plasma levels after 5 days of treatment [3]: 5517 ± 1188 ng g^–1 | La^3+ concentration in brain [3]: 101 ± 60 ng g^–1 | La^3+ concentration in heart [3]: 635 ± 178 ng g^–1 | La^3+ concentration in kidney [3]: 992 ± 321 ng g^–1 | La^3+ concentration in spleen [3]: 7817 ± 3211 ng g^–1 | plasma concentration, t=end, mean [3]: 5517.0 ng/g weight | lanthanum in plasma beyond 10 h ([7]; 1 mg kg^–1 IV, beyond 10 h): not detected | time until plasma lanthanum is back to pre-dose concentrations ([7]; 1 mg kg^–1 IV, pre-dose ∼15 ng mL^–1): ≤ 24 h | C 0 [7, 10]: 4973 ± 557 ng mL^–1 and 4973.09 ng mL^–1 | Cl [7, 10]: 77 mL h^–1 kg^–1 and 77.24 mL h^–1 kg^–1 | K el [7, 10]: 0.20 h^–1 | MRT [7, 10]: 3.46 h | T 1/2 [7, 10]: 3.61 h | V ss [7, 10]: 265 mL kg^–1 and 265.41 mL kg^–1 | plasma lanthanum level as % of C0 ([7]; within 6 hours after 1 mg kg^–1 IV): approximately 10% | La^3+ bound to HAP ([5]; first 15 minutes): greater than 80% | La^3+ concentration in brain [8]: 15 ± 12 ng g^–1 | La^3+ concentration in heart [8]: 20 ± 7 ng g^–1 | La^3+ concentration in kidney [8]: 108 ± 95 ng g^–1 | La^3+ concentration in liver [8]: 741 ± 109 ng g^–1 | La^3+ concentration in spleen [8]: 1164 ± 350 ng g^–1
Structure (SMILES): Cc1c([O-])c(=O)ccn1C.Cc1c([O-])c(=O)ccn1C.Cc1c([O-])c(=O)ccn1C.[La+3] [La(dpp)3]
plasma concentration, t=end, single animals [3]: 4971.8 ng/g weight and 4668.4 ng/g weight and 4232.8 ng/g weight and 7201.5 ng/g weight and 6740.2 ng/g weight and 5287.1 ng/g weight | EC50 (MG-63 cells): > 100 µM | pM (= –log[La^3+]) [4]: 5.8 | log βML3 [4, 9]: 17.44
